Reference: patent US20250082605A1 (priority 2016, published 2025)

Tests used:
[1] = tested on: cardiac sympathetic afferent reflex (CSAR); experiment: Response to activation of the CSAR (MAP, RSNA) over 26 weeks after epidural or epicardial RTX; type: in vivo, rat
Protocol: (§1) The following Examples 1 through 9 discuss data from rats with induced CHF. The Examples show many improved indicators associated with RTX treatment in CHF subjects. The rat models provide for comparison of epidural administration of RTX against epicardial administration of RTX and against various controls. For the epicardial data, RTX was administered directly to the epicardium by swab during open surgery contemporaneously with induced myocardial infarction (coronary artery ligation).
(§2) For epidural application of RTX, a small midline incision was made in the region of the T13-L1 thoracic vertebrae. Following dissection of the superficial muscles, two small holes (approximately 2 mm by 2 mm) were made in the left and right sides of the T13 vertebra. A polyethylene catheter (PE-10) was inserted into the […] via the left hole and gently advanced about 5.5-6 cm to the left T1 level at which the first injection (6 μg/mL, 10 μL) was made at a very slow speed to minimize the diffusion of RTX. Then the catheter was pulled back about 0.5 cm to left T2, T3, and T4, respectively, to perform serial injections (10 μL each) in each segment. Then the catheter was withdrawn and the same injection was repeated on the right side. A silicone gel was used to seal the hole in the T13 vertebra. The skin overlying the muscle was closed with a 3-0 polypropylene suture. Simple interrupted sutures were used to close the skin.
(§3) FIGS. 3A-4B show experimental results for a rat study in accordance with an embodiment of the present application.

C fiber afferents = experiment: Staining of the dorsal horn of the spinal cord at T2 for TRPV1, Substance P and IB4; type: in vivo, rat
Protocol: as §2
Neurons in the dorsal horn of the spinal cord that express SP were ablated by RTX. IB4 is an indicator of small diameter afferent nerves and SP is an indicator of neuroinflammation.

rats with induced CHF = experiment: Long-term survival of rats with induced CHF over 28 weeks; type: in vivo, rat
Protocol: as §1, §2
FIG. 7 depicts the survival rate of rats with induced chronic heart failure with and without RTX treatment. In FIG. 7A, the treatment was epicardial. In FIG. 7B the treatment was epidural. […] In particular, without RTX treatment, seven of ten rats died during the 28-week period. But only two of nine rats with RTX treatment died during the same period.

early hypertensive rats = experiment: Arterial pressure in early hypertensive rat model after epidural RTX; type: in vivo
Protocol: (§4) Open circles indicate the control population, while filled circles indicate the RTX-treated population. Epidural administration of RTX was by injection on Day 0, as indicated by the arrow on the graph.
(§5) The hypertensive model is a genetic spontaneously hypertensive rat (SHR). The early hypertension rats were treated at 8 weeks at age, reflecting a population in which blood pressure was only minimally elevated at the beginning of the study. Examples 10 and 11 illustrate treatment of subjects with hypertension and pre-hypertension (i.e., mild hypertension or early hypertension) and without induced CHF. For these subjects, epidural administration of RTX may be associated with an absolute reduction in blood pressure. Additionally, subjects treated with RTX may show less increase in blood pressure over time, as compared to a control population. Or, treatment may be associated with both an absolute reduction in pressure and lessened increase over time.
FIG. 13A-13C show experimental results in a study using an early-hypertensive rat model. […] Open circles indicate the control population, while filled circles indicate the RTX-treated population. Epidural administration of RTX was by injection on Day 0, as indicated by the arrow on each graph.

[2] = tested on: spontaneously hypertensive rat (SHR); experiment: Arterial pressure in spontaneously hypertensive rat (SHR) model with established hypertension after epidural RTX; type: in vivo
Protocol: as §4, §5
FIG. 14A-14C show further experimental results in a study using an (SHR) model. […] The established hypertensive rats were treated at 16 weeks at age, reflecting a population in which blood pressure was elevated at the beginning of the RTX administration. Open circles indicate the control population, while filled circles indicate the RTX-treated population. Epidural administration of RTX was by injection on Day 0, as indicated by the arrow on each graph. […] These subjects were not treated to induce myocardial infarction. The data allowed for comparison of SHR rats provided injection of the vehicle only (n=7) to those treated by injection of both vehicle and RTX (n=7).

hypertensive rat = conditions: in vivo
TRPV1 = TRPV1 (Rattus norvegicus, UniProt O35433); experiment: Isolectin B4 (IB4) and TRPV1 expression in DRG neurons after epidural RTX; type: in vivo; set-up: from tissue; host or cells: rat dorsal root ganglion (DRG) neurons; conditions: epidural RTX vs vehicle-only, FIG. 3A
Protocol: as §2, §3

[3] = epidural RTX vs vehicle, weeks 1, 5-6, 9-11, 24-26, FIG. 3B
[4] = epidural RTX at T1-T4 DRG levels
[5] = vehicle-only continued to increase
[6] = established SHR, maintained throughout the study

Chain of TRPV1 (O35433 whole entry): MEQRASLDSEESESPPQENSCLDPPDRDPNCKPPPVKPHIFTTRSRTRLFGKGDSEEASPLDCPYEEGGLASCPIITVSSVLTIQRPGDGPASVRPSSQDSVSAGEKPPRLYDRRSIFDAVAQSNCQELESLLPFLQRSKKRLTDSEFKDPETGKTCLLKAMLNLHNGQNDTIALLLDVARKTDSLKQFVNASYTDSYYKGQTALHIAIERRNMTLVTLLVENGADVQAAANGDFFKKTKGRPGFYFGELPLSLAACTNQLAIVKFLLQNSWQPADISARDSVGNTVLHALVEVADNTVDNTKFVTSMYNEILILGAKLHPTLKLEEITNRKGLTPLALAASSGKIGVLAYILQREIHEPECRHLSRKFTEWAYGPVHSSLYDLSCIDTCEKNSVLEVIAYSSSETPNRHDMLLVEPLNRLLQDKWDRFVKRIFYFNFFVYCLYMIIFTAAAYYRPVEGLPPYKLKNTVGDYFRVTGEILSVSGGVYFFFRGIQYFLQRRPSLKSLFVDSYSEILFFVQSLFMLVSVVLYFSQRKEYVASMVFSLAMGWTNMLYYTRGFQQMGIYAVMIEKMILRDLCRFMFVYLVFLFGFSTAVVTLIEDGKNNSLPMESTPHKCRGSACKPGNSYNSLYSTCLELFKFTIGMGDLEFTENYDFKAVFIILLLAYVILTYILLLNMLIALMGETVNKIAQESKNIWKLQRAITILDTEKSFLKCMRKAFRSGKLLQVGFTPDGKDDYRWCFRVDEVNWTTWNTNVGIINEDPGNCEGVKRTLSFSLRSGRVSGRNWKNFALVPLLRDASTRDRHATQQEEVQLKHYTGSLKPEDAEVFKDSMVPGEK

## C=C(C)[C@]12C[C@@H](C)[C@@]34O[C@](Cc5ccccc5)(O[C@@H]1[C@@H]3C=C(COC(=O)Cc1ccc(O)c(OC)c1)C[C@]1(O)C(=O)C(C)=C[C@@H]41)O2 [RTX, resiniferatoxin]
[1]; epicardial RTX administration
  duration of cardiac sympathetic afferent ablation: 3-4 months
[1]; [3]
  mean arterial pressure (MAP) response to activation of the CSAR: substantial decrease
  renal sympathetic nerve activity (RSNA) response to activation of the CSAR: substantial decrease
C fiber afferents; dorsal horn at T2, RTX vs control, FIG. 4
  expression of TRPV1 protein: reduced expression
C fiber afferents; [4]
  ablation of SP-containing C fiber afferents (peptidergic) projecting to the dorsal horn: ablated almost all
  ablation of isolectin B4 (IB4)-positive C fiber afferents (non-peptidergic) projecting to the dorsal horn: a large portion
Rats with induced CHF; 28 weeks
  survival improvement, epidural versus epicardial treatment: roughly comparable improvement
Rats with induced CHF; epidural RTX at T1-T4, n=9 (without RTX seven of ten)
  rats that died during the 28-week period: two of nine
Rats with induced CHF; epidural RTX vs no RTX, 28 weeks
  long-term survival rate: significantly higher
Early hypertensive rats
  MAP following treatment: 125-130 mmHg
  day from which MAP was significantly lower than vehicle-only: 20 days
  day from which diastolic arterial pressure was significantly lower than control: ~22 days
  day from which systolic arterial pressure was significantly lower than control: ~23 days
Early hypertensive rats; epidural RTX Day 0
  mean arterial pressure (MAP) after RTX injection: decreased slightly
Early hypertensive rats; then returned and maintained
  systolic arterial pressure within a few days after RTX injection: decreased slightly
Early hypertensive rats; [5]
  diastolic arterial pressure over the study period: remained approximately steady
  mean arterial pressure (MAP) over the period of the study: approximately steady
[2]; established SHR
  day from which MAP reduction was significant vs vehicle-only: ~8 days
  day from which diastolic arterial pressure differed significantly from vehicle-only: ~8 days
  day from which systolic arterial pressure differed significantly from vehicle-only: ~7 days
[2]; established SHR, epidural RTX, observed throughout 55-day period
  mean arterial pressure (MAP) vs pre-injection baseline: some reduction
[2]; [6]
  diastolic arterial pressure vs pre-injection baseline: decrease
  systolic arterial pressure vs pre-injection baseline: decrease
[2]; established hypertensive rats
  MAP following treatment: 125-130 mmHg
Hypertensive rat
  ABP, MAP and heart rate following injection: substantial short term increases
  average short-term increase in MAP over baseline: about 30 mmHg
  duration of transient increase in blood pressure, heart rate, or both: about five or ten
TRPV1
  isolectin B4 (IB4) and TRPV1 expression in DRG neurons: reduction
